Laboratory results reported in patent publication US5759768A, “Assays for factors affecting circularization of DNA, assays for factors affecting DNA integration, factors, and uses thereof” (priority 1995, dated 1998).
Like-named read-outs stand apart in the source and are kept apart here.

Legend:
Type in all cases: biochemical, HIV-1
[1] = system: linear viral DNA (circularization)
Procedure: (§1) The chronically HIV-1 infected Molt IIIB human T cell line (HTLV IIIB virus strain) was the source of virus for cell-free infections. This human T cell line constitutively produces a low level of the HTLV-111B strain of HIV-1. Culture supernatant containing a high concentration of virus was prepared by incubating 300×10^6 Molt IIIB cells in 50 ml fresh RPMI 1640 medium containing 20% fetal calf serum and 10 ng of phorbol 12-myristate 13-acetate per ml for 20-24 hours. […] Cytoplasmic extracts (3 ml) were prepared 4-4.5 hours post-infection, by a modification of the procedure of Brown et al., Cell 49: 342-356 (1987).
(§2) At specified times after infection, cells were washed twice with buffer K (20 mM Hepes, pH 7.4, 150 mM KCl, 5 mM MgCl2, 1 mM dithiothreitol, […]) and then lysed at a concentration of 33×10^6 cells per ml in the same buffer containing 0.025% digitonin or 0.025% Triton X-100. Cells were extracted for 10 minutes at room temperature, and the lysate was centrifuged at 1000×g for 3 minutes, and is referred to as "cytoplasmic extract". Cytoplasmic extract was the source of viral DNA for analyses in the assays described below. The pellet from the initial low-speed centrifugation contained cell debris and intact nuclei and is called the "nuclear pellet". Cell extracts from uninfected SupT1 cells were prepared in the same manner.
Viral DNA present in cytoplasmic extracts was deproteinated by incubation with proteinase K (1 mg/ml)/10 mM EDTA/0.5% SDS for 1 hour at 55° C. Samples were extracted successively with phenol/chloroform [1:1 (vol/vol)] and chloroform. DNA was ethanol-precipitated, washed with 70% ethanol, resuspended in 10 mM Tris.HCI (pH 7.4), and treated with RNase A (20 μpg/ml)for 1 hour at […]. before analysis by agarose gel electrophoresis and Southern blotting.
(§3) DNA samples were layered on 0.8% agarose gels and electrophoresed at 1 V/cm for 15 hour in Tris/acetate/EDTA buffer. After electrophoresis, DNA was blotted by capillary action onto nitrocellulose (0.45 μm, Schleicher & Schuell).
Cell extracts were prepared from cells four to five hours after infection with HIV-1, using the above-described methods to yield fully functional viral preintegration complexes. […] In all cases, a HIV-1 LTR-containing DNA fragment was used as a hybridization probe. Therefore, only LTR-containing DNA fragments are detected. […] Lane 5: Unintegrated viral DNA prepared by Hirt extraction of SupT1 cells infected 24 hours earlier with concentrated HIV-1. […] Viral DNA was purified from extracts incubated with 1 mM ATP for 15 minutes (lanes 1 and 4), with 1 mM ATP for 45 minutes (lanes 3 and 6), or with 1 mM ATPγS for 45 minutes (lanes 2 and 5). Lanes 1-3: uncut viral DNA; lanes 4-6: viral DNA was cut with SalI prior to electrophorosis. Lane 7: linear viral DNA, prepared from untreated extracts was digested with SalI prior to electrophorosis. Lane 8: unintegrated viral DNA prepared by Hirt extraction of infected cells, as described with respect to FIG. 14, digested with SalI prior to electrophoresis. […] Lanes 1-3. Viral DNA prepared from extracts treated with 1 mM ATP for 15 minutes, 30 minutes and 45 minutes, respectively. Lane 4: Viral DNA prepared from extract treated with 1 mM ATPγS for 45 minutes. Lanes 5-7: products of reactions shown in lanes 1-3, respectively, digested with SalI and PstI prior to electrophoresis. Lane 8: SalI, PstI digestion of viral DNA prepared from extract treated with 1 mM ATP for 90 minutes. Lane 9: SalI, PstI digestion of reaction products shown in lane 4. Lane 10: SalI, PstI digestion of unintegrated viral DNA prepared by Hirt extraction of infected cells.

[2] = system: purified linear viral DNA; experiment: Circularization of purified linear viral DNA in cytoplasmic extracts of uninfected SupT1 cells; details: 1 mM, 37° C., 45 min
Procedure: Further evidence of a role for host proteins in the formation of the 1-LTR and simple 2-LTR circular forms of viral DNA was obtained by testing the ability of uninfected cell extracts to mediate the circularization of purfied viral DNA. Linear viral DNA was prepared from cytoplasmic extracts of uninfected cells by SDS-proteinase K treatment and phenol extraction. The purfied DNA was added to cytoplasmic extracts prepared form uninfected SupT1 cells, in the presence or absence of added ATP.
Linear viral DNA was purified from cytoplasmic extracts of cells 4 hours post-infection as described above. In FIG. 22, a purified linear viral DNA was added to cytoplasmic extracts from uninfected SupT1 cells and incubated at 37° C. for 45 minutes. The uninfected SupT1 cells used for the preparation of extracts were either untreated (lanes 3-11) or cultured in the presence of 10 ng/ml phorbol 12-myristate 13-acetate for six hours prior to extraction (lane 2). […] Lanes 2-11: reaction products following incubation of purified linear viral DNA in uninfected extracts containing 1 mM ATP (lanes 2 and 3), nothing added (lane 4), 1 mM dATP (lane 5), 1 mM UTP (lane 6), 1 mM CTP (lane 7), 1 mM GTP (lane 8), 1 mM ATPγS (lane 9), or 1 mM ADP (lane 10). Lane 11: uninfected SupT1 cell extract was treated with proteinase K for 10 minutes at 37° C., then linear viral DNA was added and incubation continued for 45 minutes. In FIG. 23, lanes 1, 2, 4 and 5: purified linear viral DNA was incubated with T4 DNA ligase (lane 1), T4 polynucleotide kinase and T4 DNA ligase (lane 2), Klenow fragment of E. coli DNA polymerase I and T4 DNA ligase […], or Klenow fragment, T4 polynucleotide kinase, and T4 DNA ligase (lane 4). Lanes 3 and 6: in vitro circularization reaction products generated in cell extracts, included as size standards. Lane 3: cytoplasmic extracts from infected cells were incubated with […] for 45 minutes; lane 6: purified linear viral DNA was incubated with cytoplasmic extract from uninfected SupT1 cells in the presence of 1 mM ATP for 45 minutes. The possibility that a host DNA ligase was responsible for the formation of the simple 2-LTR circles was examined by testing the ability of phage T4 ligase to catalyze the circularization of linear viral DNA. […] Restriction endonuclease analysis of the reaction products formed in the presence of both Klenow fragment and T4 DNA ligase confirmed the formation of new 2-LTR junctions (not shown). […] This observation is consistent with previous reports that linear viral DNA prepared from cells infected with the murine leukemia virus [Fujiwara and Mizuuchi, Cell, 54:497-504 (1988) and HIV-1 [Pauza, Virology, 179:886-887 (1990)] consists of a mixture of molecules that are either blunt-ended or recessed by two nucleotides at each 3'-terminus. The removal of the two terminal nucleotides is mediated by the viral integrase as a necessary step in the process of integration [Roth et al., Cell 58: 47-54 (1989)]. […] This would explain the requirement of DNA polymerase for the subsequent joining of the ends of viral DNA by DNA ligase.

[3] = system: viral DNA integrated into .phi.X174 target DNA; details: for inhibition of integration: 90 min incubation
Procedure: as §1, §2, §3
In Vitro Integration Reaction
Pst I-linearized (replicative form III) .phi.X174 DNA, relaxed circular (replicative form II) .phi.X174 DNA, and single-stranded M13 DNA were used as targets for the in vitro integration of viral DNA. Target DNA was added to cytoplasmic extracts of intected SupT1 cells to a concentration of 10 μg/ml, and reaction mixtures were incubated at […]. Reactions, were stopped by the addition of SDS and proteinase K.
Cytoplasmic extracts prepared from SupT1 cells 4 hours after infection with HIV-1 were incubated with exogenously added target DNA under integration reaction conditions. Products of the reactions were analyzed by Southern blot hybridization. The time course of integration into linear .phi.X174 DNA target was determined. Target DNA was added to the extract and the reaction was stopped after 0,5,15,30, or 45 minutes of incubation at 37° C. (FIG. 11, lanes a-e, respectively). Purified linear viral DNA was incubated for 1 hour at 37° C. with cytoplasmic extract prepared from uninfected SupT1 cells (lane f). […] Arrows in the Figure indicate the positions of viral DNA products. L, linear viral DNA:I, integration product. Integration was detected by the shift of linear viral DNA on Southern blots from the characteristic 9.7-kilobase (kb) position to a position corresponding to viral DNA plus target DNA.

Compound: Nc1ncnc2c1ncn2[C@@H]1O[C@H](COP(=O)(O)OP(=O)(O)O)[C@@H](O)[C@H]1O [ADP]
- circular DNA forms observed ([1]; 1 mM, 37° C., 45 min): No circular DNA forms were observed

Compound: Nc1ncnc2c1ncn2[C@@H]1O[C@H](COP(=O)(O)O)[C@@H](O)[C@H]1O [AMP]
- circular DNA forms observed ([1]; 1 mM, 37° C., 45 min): No circular DNA forms were observed

Compound: Nc1ccn([C@@H]2O[C@H](COP(=O)(O)OP(=O)(O)OP(=O)(O)O)[C@@H](O)[C@H]2O)c(=O)n1 [CTP, cytosine triphosphate]
- 1-LTR circles from purified linear viral DNA [2]: able to induce the formation of 1-LTR circles
- 2-LTR circles from purified linear viral DNA [2]: failed to induce the formation of detectable 2-LTR circles
- induction of 1-LTR circular form [1]: induced the formation of only a small amount of the 1-LTR circular form
- induction of 2-LTR circles [1]: induced the formation of 2-LTR circles

Compound: Nc1nc2c(ncn2[C@@H]2O[C@H](COP(=O)(O)OP(=O)(O)O)[C@@H](O)[C@H]2O)c(=O)[nH]1 [GDP]
- circular DNA forms observed ([1]; 1 mM, 37° C., 45 min): No circular DNA forms were observed

Compound: Nc1nc2c(ncn2[C@@H]2O[C@H](COP(=O)(O)OP(=O)(O)OP(=O)(O)O)[C@@H](O)[C@H]2O)c(=O)[nH]1 [GTP, guanosine triphosphate]
- induction of 1-LTR circular form ([1]; 1 mM, 37° C., 45 min): induced the formation of only a small amount of the 1-LTR circular form
- induction of 2-LTR circles ([1]; 1 mM, 37° C., 45 min): induced the formation of 2-LTR circles

Compound: [Cl-].[Na+] [NcCl]
- Relative activity, % of standard [3]: 100 % of standard

Compound: O=c1ccn([C@@H]2O[C@H](COP(=O)(O)OP(=O)(O)OP(=O)(O)O)[C@@H](O)[C@H]2O)c(=O)[nH]1 [UTP]
- 1-LTR circles from purified linear viral DNA [2]: able to induce the formation of 1-LTR circles
- 2-LTR circles from purified linear viral DNA [2]: failed to induce the formation of detectable 2-LTR circles
- induction of 1-LTR circular form ([1]; 1 mM, 37° C., 45 min): induced the formation of only a small amount of the 1-LTR circular form
- induction of 2-LTR circles ([1]; 1 mM, 37° C., 45 min): induced the formation of 2-LTR circles

Compound: Nc1ncnc2nc[nH]c12 [adenine]
- circular DNA forms observed ([1]; 1 mM, 37° C., 45 min): No circular DNA forms were observed

Compound: Nc1ncnc2c1ncn2[C@@H]1O[C@H](CO)[C@@H](O)[C@H]1O [adenosine]
- circular DNA forms observed ([1]; 1 mM, 37° C., 45 min): No circular DNA forms were observed

Compound: CC[C@@]1(O)C(=O)OCc2c1cc1n(c2=O)Cc2cc3ccccc3nc2-1 [camptothecin]
- inhibition of integration ([3]; 5 μM): about 50%
- inhibition of integration ([3]; 50 μM): about 100%

Compound: Nc1ncnc2c1ncn2[C@@H]1O[C@H](CO)C[C@H]1O [cordycepin, 3'-deoxyadenosine]
- circular DNA forms observed ([1]; 1 mM, 37° C., 45 min): No circular DNA forms were observed

Compound: Nc1cc[nH]c(=O)n1 [cytosine]
- circular DNA forms observed ([1]; 1 mM, 37° C., 45 min): No circular DNA forms were observed

Compound: Nc1ncnc2c1ncn2[C@H]1C[C@H](O)[C@@H](COP(=O)(O)OP(=O)(O)OP(=O)(O)O)O1 [dATP, deoxyadenosine triphosphate]
- 1-LTR circles from purified linear viral DNA [2]: able to induce the formation of 1-LTR circles
- 2-LTR circles from purified linear viral DNA [2]: failed to induce the formation of detectable 2-LTR circles
- induction of both circular forms ([1]; 1 mM, 37° C., 45 min): induced both circular forms with an efficiency comparable to ATP

Compound: Nc1nc2c(ncn2[C@H]2CC[C@@H](COP(=O)(O)OP(=O)(O)OP(=O)(O)O)O2)c(=O)[nH]1 [dd-GTP]
- induction of 1-LTR circular form ([1]; 1 mM, 37° C., 45 min): unable to induce detectable amounts of the 1-LTR circular forms
- induction of 2-LTR circles ([1]; 1 mM, 37° C., 45 min): induced the formation of 2-LTR circles

Compound: Nc1ncnc2c1ncn2[C@H]1CC[C@@H](COP(=O)(O)OP(=O)(O)OP(=O)(O)O)O1 [ddATP, dideoxyadenesine triphosphate]
- induction of 1-LTR circular form ([1]; 1 mM, 37° C., 45 min): unable to induce detectable amounts of the 1-LTR circular forms
- induction of 2-LTR circles ([1]; 1 mM, 37° C., 45 min): induced the formation of 2-LTR circles

Compound: Nc1ccn([C@H]2CC[C@@H](COP(=O)(O)OP(=O)(O)OP(=O)(O)O)O2)c(=O)n1 [ddCTP]
- induction of 1-LTR circular form ([1]; 1 mM, 37° C., 45 min): unable to induce detectable amounts of the 1-LTR circular forms
- induction of 2-LTR circles ([1]; 1 mM, 37° C., 45 min): induced the formation of 2-LTR circles

Compound: Cc1cn([C@H]2CC[C@@H](COP(=O)(O)OP(=O)(O)OP(=O)(O)O)O2)c(=O)[nH]c1=O [ddTTP]
- induction of 1-LTR circular form ([1]; 1 mM, 37° C., 45 min): unable to induce detectable amounts of the 1-LTR circular forms
- induction of 2-LTR circles ([1]; 1 mM, 37° C., 45 min): induced the formation of 2-LTR circles

Compound: Nc1nc2nc[nH]c2c(=O)[nH]1 [guanine]
- circular DNA forms observed ([1]; 1 mM, 37° C., 45 min): No circular DNA forms were observed

Compound: Nc1nc2c(ncn2[C@@H]2O[C@H](CO)[C@@H](O)[C@H]2O)c(=O)[nH]1 [guanosine]
- circular DNA forms observed ([1]; 1 mM, 37° C., 45 min): No circular DNA forms were observed

Compound: O=c1cc[nH]c(=O)[nH]1 [uracil]
- circular DNA forms observed ([1]; 1 mM, 37° C., 45 min): No circular DNA forms were observed

Compound: alkaline phosphatase
- effect on the in vitro integration reaction ([3]; pretreatment of linear target DNA): no effect on the in vitro integration reaction
